In general, IC50 refers to the midpoint of a concentration-inhibition curve. Higher therefore signals lower potency. The AUC is the area under the concentration-time curve, a measure of exposure. A high value points to more exposure. One may read the Vd as the apparent volume that relates the amount in the body to the concentration in plasma or blood. Read a low Vd as confinement near the circulation. The term clearance denotes the rate of elimination divided by the concentration. Low readings indicate inefficient removal, high ones efficient removal. By Ki is commonly meant a dissociation constant, usually derived from enzyme kinetics or from competition with a known ligand. A higher Ki goes with a looser hold on the target. By EC50 is commonly meant the concentration giving half of the maximal effect.

The record followed here is paper PMC6072017, “Reversible covalent direct thrombin inhibitors” (PLoS ONE, 2018).

Where two headings read alike, the source gives them in different places.

For series [1], the target named is T1, Plasmin (Homo sapiens, UniProt P00747). In words: Enzyme inhibition assay, chromogenic substrate S-2251.
T1 sequence (P00747 581-810 limits assumed, species assumed): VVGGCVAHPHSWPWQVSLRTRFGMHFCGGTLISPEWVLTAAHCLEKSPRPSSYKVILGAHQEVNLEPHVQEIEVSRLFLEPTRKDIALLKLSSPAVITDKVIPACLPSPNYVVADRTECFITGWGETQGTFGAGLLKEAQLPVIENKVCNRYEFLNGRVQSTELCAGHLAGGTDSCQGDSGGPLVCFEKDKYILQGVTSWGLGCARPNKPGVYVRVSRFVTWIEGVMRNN
T1 sequence (P00747 97-580 partner limits assumed, species assumed): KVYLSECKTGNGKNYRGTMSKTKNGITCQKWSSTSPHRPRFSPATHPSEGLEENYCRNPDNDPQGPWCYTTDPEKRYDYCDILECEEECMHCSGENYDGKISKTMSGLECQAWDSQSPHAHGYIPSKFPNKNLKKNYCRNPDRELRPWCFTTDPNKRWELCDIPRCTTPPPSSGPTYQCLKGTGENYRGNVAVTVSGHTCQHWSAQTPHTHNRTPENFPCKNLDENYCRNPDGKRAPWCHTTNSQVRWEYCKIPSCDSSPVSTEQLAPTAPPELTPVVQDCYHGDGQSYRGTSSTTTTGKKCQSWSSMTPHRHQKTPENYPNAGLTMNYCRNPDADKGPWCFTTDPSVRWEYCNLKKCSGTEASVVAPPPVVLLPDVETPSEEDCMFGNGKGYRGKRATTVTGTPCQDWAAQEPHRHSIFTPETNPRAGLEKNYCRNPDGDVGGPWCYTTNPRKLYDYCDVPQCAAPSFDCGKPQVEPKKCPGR
The nature of series [2]: Pharmacokinetics (PK) in CD-1 mice. Particulars: male, CD-1, mouse, plasma, iv, 0.5 mg/kg.
Procedure: The test compound was injected intravenously (i.v.) into CD-1 mice at 0.5 mg/kg in formulation containing 5% DMA (dimethyl acetamide) 15% Solutol HS15 and 80% water. Animals were euthanized at predefined time points by CO2 inhalation and blood was collected in K2-EDTA vacutainers by cardiac puncture. The vials were then centrifuged to collect plasma. […] LC-MS was performed using a Luna Omega 1.6 μm Polar C18 (Phenomenex) column, a Shimadzu Nexera UHPLC, and a Sciex QTrap 5500 mass spectrometer. The PK parameters were calculated by non-compartmental analysis using Phoenix WinNonlin (Certara).
Series [3] in a line: Liver microsome (LM) stability assay. The note with it: liver microsomes, NADPH, n = 2, read-out: LM stability t½. The format is in vitro ADME. The method, then: Compound at 1 μM (0.5% final DMSO concentration) was incubated with a 0.5 mg/mL CD-1 mouse (Sigma), SD rat (Life Technologies), or human liver microsome (Life Technologies) in the presence of 1 mM NADPH at 37°C for up to one hour. Aliquots were taken out at different time points and quenched in acetonitrile containing diclofenac (internal standard). […] Verapamil was used as a positive control, and warfarin was used as a negative control.
Background: Microsomes from liver hold many membrane-bound enzymes, among them those of drug oxidation.

Series [4] has as its target Factor VIIa (Homo sapiens, UniProt P08709). In words: Enzyme inhibition assay, chromogenic substrate S-2238.
Series [5] has as its system clotting of human platelet-poor plasma. Nature of the series: Activated partial thromboplastin time (aPTT) clotting assay. The format is biochemical. Particulars: 37°C. The method, then:
(§1) Both PT and aPTT assays were performed as recommended by the vendor (Diagnostica Stago). Briefly, citrated normal pooled human platelet-poor plasma was mixed with test compound (2% DMSO) at 37°C. Subsequently, either the aPTT assay reagent or PT assay reagent was added and mixed thoroughly. CaCl2 was then added to trigger the clotting process. The time for clot formation was measured in seconds and the test compound concentration to double the clotting time (CT2x) was determined.

A short description of series [6]: Plasma stability assay. The format is in vitro ADME. The note with it: 37°C, n = 2, read-out: Plasma stability t½. The method, then: The compound at 20 μM (2% final DMSO concentration) was incubated with CD-1 mouse (Innovative Research), SD rat (Innovative research), or human plasma (George King BioMed) at 37°C for up to three hours. Aliquots were taken out at different time points and quenched in acetonitrile containing diclofenac (internal standard). The samples were then centrifuged and the supernatant was analyzed by UHPLC using a Kinetex 2.6 μm C18 (Phenomenex) column and a Shimadzu Nexera UHPLC. Verapamil was used as a positive control.

Series [7] addresses T2, Factor Xa (Homo sapiens, UniProt P00742). In words: Progress curve kinetics experiments. The format is biochemical. More on the design: purchased Haemtech Biopharma Services.
Procedure: (§3) The data for the initial time points, up to at least 65% reaction progress, were analyzed as described in Wakselman et al. [20].
Series [8] has as its target T1, Plasmin. In words: Progress curve kinetics experiments. The format is biochemical. More on the design: purchased Haemtech Biopharma Services. The method, then: The data for the initial time points, up to at least 65% reaction progress, were analyzed as described in Wakselman et al..
Thus, when fitting to Eq (3), the extracted values kobs for each well were plotted against the modified inhibitor concentration [I]′0=(1−α)[I]0. (6)
For the experiments presented in this paper, n = 2 and the mean and standard deviation are reported for each parameter.

In series [9] the target is T3, Factor XIIa (Homo sapiens, UniProt P00748).
T3 sequence (P00748 373-615 limits assumed): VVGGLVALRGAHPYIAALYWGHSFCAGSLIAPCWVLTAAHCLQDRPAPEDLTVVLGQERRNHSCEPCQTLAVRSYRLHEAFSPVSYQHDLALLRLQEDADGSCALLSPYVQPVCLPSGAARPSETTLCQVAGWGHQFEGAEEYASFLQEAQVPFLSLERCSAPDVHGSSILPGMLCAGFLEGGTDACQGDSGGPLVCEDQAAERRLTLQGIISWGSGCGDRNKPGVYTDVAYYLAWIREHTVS
T3 sequence (P00748 20-372 partner limits assumed): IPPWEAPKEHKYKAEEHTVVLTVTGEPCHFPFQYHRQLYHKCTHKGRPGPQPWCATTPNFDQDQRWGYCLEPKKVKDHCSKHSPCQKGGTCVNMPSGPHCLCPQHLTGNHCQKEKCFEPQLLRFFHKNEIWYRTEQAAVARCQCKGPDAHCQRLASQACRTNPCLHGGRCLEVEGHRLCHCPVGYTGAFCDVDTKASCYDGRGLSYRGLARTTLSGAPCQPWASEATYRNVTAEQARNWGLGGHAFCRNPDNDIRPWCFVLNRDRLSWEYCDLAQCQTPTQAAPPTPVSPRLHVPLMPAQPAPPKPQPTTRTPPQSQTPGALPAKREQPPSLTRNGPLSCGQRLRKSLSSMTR
In words: Enzyme inhibition assay, chromogenic substrate S-2302.

Series [10] deals with aPC (Homo sapiens, UniProt P04070). In words: Enzyme inhibition assay, chromogenic substrate S-2366.
Chain of aPC (P04070 212-450 limits assumed): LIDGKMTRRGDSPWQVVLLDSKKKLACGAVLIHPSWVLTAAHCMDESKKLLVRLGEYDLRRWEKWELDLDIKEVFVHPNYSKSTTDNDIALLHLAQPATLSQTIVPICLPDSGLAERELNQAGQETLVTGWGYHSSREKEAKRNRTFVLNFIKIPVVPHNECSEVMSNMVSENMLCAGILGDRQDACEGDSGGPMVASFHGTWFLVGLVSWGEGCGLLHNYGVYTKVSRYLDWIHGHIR
Chain of aPC (P04070 43-197 partner limits assumed): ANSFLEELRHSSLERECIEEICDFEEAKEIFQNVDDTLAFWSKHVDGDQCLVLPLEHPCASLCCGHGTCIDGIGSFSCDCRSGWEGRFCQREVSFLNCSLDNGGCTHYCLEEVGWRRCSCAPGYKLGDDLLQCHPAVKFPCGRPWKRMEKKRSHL
Series [11] has as its target T2, Factor Xa. In words: Enzyme inhibition assay, chromogenic substrate S-2765.
For series [12], the target named is T4, Factor XIa (Homo sapiens, UniProt P03951). In words: Progress curve kinetics experiments. Type of series: biochemical.
T4 sequence (P03951 388-625 limits assumed): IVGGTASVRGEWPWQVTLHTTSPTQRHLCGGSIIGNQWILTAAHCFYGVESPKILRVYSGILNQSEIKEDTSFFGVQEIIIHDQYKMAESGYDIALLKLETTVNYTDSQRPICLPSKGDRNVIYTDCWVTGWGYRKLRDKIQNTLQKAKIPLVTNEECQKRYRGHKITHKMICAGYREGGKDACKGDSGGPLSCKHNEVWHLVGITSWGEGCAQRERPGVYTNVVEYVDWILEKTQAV
T4 sequence (P03951 19-387 partner limits assumed): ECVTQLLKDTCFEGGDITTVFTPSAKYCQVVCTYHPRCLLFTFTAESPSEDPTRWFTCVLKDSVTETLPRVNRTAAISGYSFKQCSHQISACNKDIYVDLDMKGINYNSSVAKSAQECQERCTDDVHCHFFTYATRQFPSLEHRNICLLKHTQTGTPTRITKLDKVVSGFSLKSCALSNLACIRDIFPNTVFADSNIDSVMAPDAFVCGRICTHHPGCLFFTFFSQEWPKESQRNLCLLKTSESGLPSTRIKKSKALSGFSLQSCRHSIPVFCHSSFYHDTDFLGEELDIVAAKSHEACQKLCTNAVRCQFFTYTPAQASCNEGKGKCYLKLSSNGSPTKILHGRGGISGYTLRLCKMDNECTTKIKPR
Procedure: as §3
Series [13] deals with Factor IXa (Homo sapiens, UniProt P00740). In words: Enzyme inhibition assay, substrate Spectrozyme.
Chain of Factor IXa (P00740 227-461 limits assumed): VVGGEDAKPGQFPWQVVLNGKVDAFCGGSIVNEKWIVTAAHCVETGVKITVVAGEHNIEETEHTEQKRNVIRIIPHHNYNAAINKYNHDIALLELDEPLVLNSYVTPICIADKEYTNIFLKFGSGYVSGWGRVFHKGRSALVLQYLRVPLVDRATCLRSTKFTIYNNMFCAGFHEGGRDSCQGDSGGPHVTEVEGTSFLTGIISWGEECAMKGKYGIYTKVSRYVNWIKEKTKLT
Chain of Factor IXa (P00740 47-191 partner limits assumed): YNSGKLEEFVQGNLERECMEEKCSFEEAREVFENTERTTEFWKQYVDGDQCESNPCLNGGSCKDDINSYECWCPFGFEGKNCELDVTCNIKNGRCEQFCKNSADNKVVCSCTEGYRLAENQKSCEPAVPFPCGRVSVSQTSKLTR
A short description of series [14]: Control sample in buffer in the absence of thrombin. Particulars: 50 mM Tris pH 7.4, 100 mM NaCl, 0.2% PEG 8000, up to overnight.
Procedure: The reaction was then quenched with acetonitrile and centrifuged at 4°C, 1000x RCF, for 10 min to pellet the protein. […] Quantification of the compounds was performed by LC-MS using a Shimadzu Nexera X2 UPLC system coupled with a Sciex QTrap 5500. Chromatography was performed on a LunaOmega Polar C18 analytical column (1.6 μm, 50 x 2.1 mm). The mobile phases were 0.025% formic acid in water and 0.025% formic acid in acetonitrile.
In series [15] the target is T4, Factor XIa. In words: Enzyme inhibition assay, chromogenic substrate S-2366.
In series [16] the target is thrombin (Homo sapiens, UniProt P00734). Nature of the series: Enzyme inhibition assay, chromogenic substrate S-2238.
Series [17] concerns the target T5, thrombin mutant S195A (Homo sapiens, UniProt P00734, S568A).
T5 construct: made in house; host or cells: E. coli
In words: Binding of a dansyl probe to thrombin (tryptophan fluorescence). The note with it: 1 μM compound, excitation 280 nm, emission 340 nm. How it is done:
(§2) Compound 2 at 1 μM was incubated with WT human α-thrombin (80 nM) or the active site mutant protein S195A at room temperature for 10 min. Then, fluorescence measurements (excitation 280 nm, emission 340 nm) were recorded in kinetic mode.

The target of series [18] is T6, WT human α-thrombin (Homo sapiens, UniProt P00734).
T6 construct: made in house; host or cells: E. coli
The description is as above. Particulars: 1 μM compound, 80 nM thrombin, excitation 280 nm, emission 340 nm. The method, then:
as §2

Series [19] concerns thrombin generation in human platelet-poor plasma. In words: Thrombin generation assay (TGA). The format is biochemical. The note with it: 70% human platelet-poor plasma, 37°C. How it is done: The assay was performed with human platelet-poor plasma (70% final concentration) in buffer containing 20 mM HEPES (pH 7.4), 150 mM NaCl, and compound in DMSO (4% final concentration). The assay also contained phospholipids (approx. 3 μM) and Dade Innovin (1/5000 final dilution of stock). The reaction was triggered by the addition of a solution containing substrate (Z-GGR-AMC, 0.5 mM final concentration) and CaCl2 (15 mM final concentration). The reaction was then monitored kinetically by fluorescence (excitation 380 nm, emission 460 nm) at 37°C for 90 min.

Series [20] has as its target Trypsin. Nature of the series: Enzyme inhibition assay, chromogenic substrate S-2765. The format is biochemical. The note with it: 10 min preincubation, 3 nM enzyme. How it is done: Final reaction volumes were 100 μL.
For FXIIa, the buffer also contained 50 mM imidazole. […] The buffer for FIXa (50 nM final concentration) was 50 mM Tris, 100 mM NaCl, 5 mM CaCl2, and 30% ethylene glycol.

For series [21], the system named is clotting of human platelet-poor plasma. Particulars: 37°C. How it is done: as §1
Where [22] appears, read: read-out: Cmax EC50 (peak height).
Setting [23] is: read-out: ETP EC50 (endogenous thrombin potential).

Chain of Factor VIIa (P08709 213-466 limits assumed): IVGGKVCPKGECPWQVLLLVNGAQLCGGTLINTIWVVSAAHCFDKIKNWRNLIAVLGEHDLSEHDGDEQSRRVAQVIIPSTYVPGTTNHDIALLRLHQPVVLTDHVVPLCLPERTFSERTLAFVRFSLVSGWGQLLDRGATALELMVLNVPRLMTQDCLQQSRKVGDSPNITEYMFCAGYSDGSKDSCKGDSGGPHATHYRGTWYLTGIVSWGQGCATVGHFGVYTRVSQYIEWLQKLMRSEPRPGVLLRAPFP
Chain of Factor VIIa (P08709 61-212 partner limits assumed): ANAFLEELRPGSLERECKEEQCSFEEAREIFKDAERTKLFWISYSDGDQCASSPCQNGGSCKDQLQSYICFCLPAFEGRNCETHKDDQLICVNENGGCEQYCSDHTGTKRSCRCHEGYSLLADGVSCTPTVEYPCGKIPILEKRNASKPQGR
Chain of Factor VIIa (P13726 33-295 partner): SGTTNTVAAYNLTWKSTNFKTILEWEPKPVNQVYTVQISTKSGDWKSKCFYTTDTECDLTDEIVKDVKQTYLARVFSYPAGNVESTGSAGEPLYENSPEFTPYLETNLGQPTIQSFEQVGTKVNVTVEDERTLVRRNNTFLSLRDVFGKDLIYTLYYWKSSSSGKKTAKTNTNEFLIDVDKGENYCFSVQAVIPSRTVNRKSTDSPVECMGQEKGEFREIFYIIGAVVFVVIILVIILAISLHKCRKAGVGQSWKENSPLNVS
T2 sequence (P00742 235-488 limits assumed): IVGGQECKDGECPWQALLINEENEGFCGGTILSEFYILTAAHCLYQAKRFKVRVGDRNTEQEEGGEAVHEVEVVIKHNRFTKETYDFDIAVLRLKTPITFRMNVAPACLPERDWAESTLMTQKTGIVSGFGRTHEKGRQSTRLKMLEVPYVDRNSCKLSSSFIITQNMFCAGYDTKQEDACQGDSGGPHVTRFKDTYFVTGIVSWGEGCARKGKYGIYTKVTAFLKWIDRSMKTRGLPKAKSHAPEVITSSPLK
T2 sequence (P00742 41-179 partner limits assumed): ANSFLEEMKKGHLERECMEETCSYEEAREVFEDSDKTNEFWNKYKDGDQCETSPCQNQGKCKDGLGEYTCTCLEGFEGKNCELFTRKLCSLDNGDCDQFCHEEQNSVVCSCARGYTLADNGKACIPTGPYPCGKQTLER

With `COc1ccccc1C(=O)n1nc(C2CCNCC2)c(F)c1NCc1ccc(Cl)s1` [Compound 1], the IC50 was 0.7 ± 0.15 µM in [1]; 13.8 ± 2.8 µM in [4]; above 50 µM in series [9]; above 50 µM in series [10]; 8.3 ± 3.4 µM in [11]; above 50 µM in series [13]. Moreover, half-maximal inhibition in series [15] (IC50) required 2.8 ± 0.2 µM. Moreover, in series [2], the AUC was 88 ng·h/mL. The C0 in series [2] amounted to 260 ng/mL. The Vd in series [2] was found to be 30 L/kg. This molecule also showed a clearance in series [2] of 183 mL/min/kg. The molecule further had a half-life in series [2] of 114 min. The half-life at 1 μM in series [3] (CD-1 mouse liver microsome 0.5 mg/mL) is 20 ± 2 min; in [3] (Human liver microsome 0.5 mg/mL), 110 min; in series [3] (SD rat liver microsome 0.5 mg/mL), 8 ± 1.6 min. Also, in series [5], the “CT2x in aPTT assay (concentration to double the clotting time)” value was above 100 µM. Besides, the results for the half-life at 20 μM in [6] (CD-1 mouse plasma), in series [6] (Human plasma) and in [6] (SD rat plasma) were 14 ± 1 min, 89 ± 9 min and 25 min, respectively. For the same molecule, the values for the Ki in [7], in series [8] and in [12] were 94 ± 57 µM, 0.8 ± 0.6 µM and 5.5 ± 4 µM, respectively. In addition, the “stability in buffer in the absence of thrombin” value in series [14] is recorded as “stable over the entire course of the experiment”.
`CN(C)c1cccc2c(S(=O)(=O)Nc3ccc(C(=O)n4nc(C5CCNCC5)c(F)c4NCc4ccc(Cl)s4)cc3)cccc12` [Compound 2] gave an IC50 in series [16] of 0.08 µM. For the same molecule, in series [17], the “change of tryptophan fluorescence on addition to thrombin S195A” value is “failed to produce any change in fluorescence”. In series [18], the “change of tryptophan fluorescence on incubation with thrombin WT” value is on record as “time-dependent change in the fluorescence intensity at 340 nm”.
Regarding `CC1CNc2c(cccc2S(=O)(=O)N[C@@H](CCCNC(=N)N)C(=O)N2CC[C@@H](C)C[C@@H]2C(=O)O)C1` (some centres unmarked) [Argatroban], the IC50 in [1], in series [4], in series [9], in series [10], in series [11] and in series [20] was above 50 µM each time. In addition, the IC50 in series [13] and in series [15] was above 50 µM in each case. For the same molecule, the EC50 worked out at 0.27 ± 0.05 µM in series [19] (setting [22]) and 0.34 ± 0.11 µM in [19] (setting [23]). The “CT2x in aPTT assay (concentration to double the clotting time)” value in series [5] was determined as 0.27 ± 0.15 µM. Further, in series [21], the “CT2x in PT assay (concentration to double the clotting time)” value was determined as 0.60 ± 0.14 µM.
As for `[H]/N=C(/N)c1ccc(NCc2nc3cc(C(=O)N(CCC(=O)O)c4ccccn4)ccc3n2C)cc1` [Dabigatran], the IC50 in series [1] was 8.4 ± 2.6 µM; in series [4], 40.7 ± 13.3 µM; in series [9], above 50 µM; in series [10] it was 41.3 ± 7.6 µM; in [13] it was above 50 µM; in series [15], 4.2 ± 1.5 µM. Also, the concentration giving a half-maximal response (EC50) was found to be 0.24 ± 0.08 µM in series [19] (setting [22]) and 0.21 ± 0.04 µM in series [19] (setting [23]).
The molecule `Fc1c(C2CCNCC2)n[nH]c1NCc1ccc(Cl)s1` [Compound 3] showed an IC50 in [16] above 100 µM. Moreover, the “Tmax EC2x (concentration necessary to shift the time to peak 2-fold)” value in series [19] is above 100 µM. Besides, the EC50 in [19] (setting [22]) and in [19] (setting [23]) was above 100 µM in each case.
